The text below walks through data of article PMC10610023, “Nucleoside Analog 2′,3′-Isopropylidene-5-Iodouridine as Novel Efficient Inhibitor of HIV-1” (Pharmaceutics, 2023).

Read-outs that look alike come from different tables or passages of the source. A value given as a limit tells only on which side of the number the result lay.

Series [1] can be described thus: Cell viability analysis, Trypan blue staining, Jurkat cells. The conditions noted are these: human, 72 h. In kind it is cell-based, human. As to the method: (§1) In this study, we used Jurkat and CEM-ss (human T-lymphoblastic leukemia) cells cultured in RPMI-1640 medium and HEK293T (human embryonic kidney cells) cells cultured in a DMEM medium. Growth medium was supplemented with 10% FBS (fetal bovine serum), 2 mM L-glutamine, 1mM sodium pyruvate, 100 μg/mL of streptomycin, and 100 units/mL of penicillin (Gibco/Invitrogen Life technologies). Cells were cultured at 37 °C in a humidified atmosphere with 5% CO2.
(§2) Palbociclib was dissolved in H2O. At 72 h after treatment, cell viability was assessed by staining with a 0.4% Trypan blue solution (Invitrogene Corp., Carlsbad, CA, USA) by counting in a Neubauer chamber. CC50s were calculated by nonlinear regression with variable slope (four parameters) and robust fitting using the GraphPad Prism software v.8.4.3 (GraphPad Software, San Diego, CA, USA).

Series [2] can be described thus: Cell viability analysis, Trypan blue staining, CEM-ss cells. The conditions noted are these: human, CEM-ss cells, 0–30 μM. The series is classed as cell-based, human. How it is done: as §1, §2
Series [3] relates to HIV-1 based replication-defective lentiviral particles. Kind of series: microbe, parasite or virus in culture. The conditions noted are these: for EC50: Human immunodeficiency virus 1, Jurkat, 72 h. In kind it is cell-based.
The test system is the same in series [4]. Description: microbe, parasite or virus in culture. The series is classed as cell-based. The conditions noted are these: for EC50: Human immunodeficiency virus 1, CEM-SS, 72 h.
Series [5] concerns Jurkat cells. Description: Cell viability analysis, Trypan blue staining, Jurkat cells. The series is classed as cell-based, human. As to the method: as §1, §2
Series [6] deals with CEM-ss cells. Description: Cell viability analysis, Trypan blue staining, CEM-ss cells. The settings on record: 72 h, concentrations up to 30 μM. The series is classed as cell-based, human. As to the method:
as §1, §2

The subject of series [7] is HIV-1 based replication-defective lentiviral particles. Kind of series: Drug combination analysis Palbociclib with AZT or 2f, VP-GFP transduction of Jurkat cells. The conditions noted are these: for drug interaction with Palbociclib (ZIP synergy): pre-treated with Palbociclib 12 h; for inhibition at 0.0029 µM / inhibition at 0.0059 µM / inhibition at 0.0117 µM: Human immunodeficiency virus 1, Jurkat, read-out: Inhibition efficiency, %, Jurkat. The series is classed as cell-based. As to the method:
At 48 h post treatment with viral particles encoding marker GFP, the transduction efficiency was measured by flow cytometry (Figure 6E). In both combinations, Palbociclib was used in concentrations of ~3 nM, ~6 nM, or ~12 nM. […] Then, the dose-response matrixes were used to calculate synergy scores using ZIP algorithm (Figure 6F,G).

Series [8] shares this test system. Description: Drug combination analysis AZT with 2f, VP-GFP transduction of Jurkat cells.
Experimental: (§4) In our experiments, we decided not to exceed the concentration of 30 μM of each drug in order to exclude the possible side effects of DMSO; concentration in a well for these experiments was not more than 0.06%. The equivalent concentration of DMSO (0.06%) was used in control samples of cells not treated with drugs. […] At 72 h after transduction, the percentage of eGFP-positive cells was determined by flow cytometry (LSR Fortessa, BD Biosciences, Heidelberg, Germany). […] Analysis of the eGFP positive cells percentage was performed with FlowJo software 10.0.7 (FlowJo LLC, Ashland, OR, USA).
(§5) For this we used both compounds at the wide range of concentrations.
(§6) Next, the synergy distribution plots were generated and analyzed using the Synergy Finder v3.0 web source. We used the ZIP model to calculate synergy scores that were used to interpret drug interaction relationships. Scores larger than 10 mean that the interaction between two drugs is synergistic. Scores up to 10 mean that the interaction is likely to be additive.
For series [9] the test system is unchanged. Kind of series: Drug combination analysis AZT with 2f, VP-GFP transduction of CEM-ss cells. The conditions noted are these: AZT and 2f in combination, up to 30 μM each.
Experimental: as §4, §5, §6
In series [10] the test system is Jurkat cells. Description: Cell cycle analysis, propidium iodide staining, Jurkat cells. In kind it is cell-based, human. The settings on record: concentrations up to 12 nM. As to the method: (§3) Apoptosis was measured by double staining with Annexin V-FITC (Invitrogene, Thermo Scientific, Waltham, MA, USA) and propidium iodide (PI) (Sigma, Cibolo, TX, USA) 72 h after transduction. To measure the distribution of cells in the phases of the cell cycle, Jurkat cells were fixed in ethanol and stained with propidium iodide. All measurements were performed on an LSR Fortessa flow cytometer (BD Biosciences, San Jose, CA, USA). […] Analysis of cell cycle rate was performed with ModFit LT software v.4.1.7 (Verity Software House, Topsham, ME, USA).

Series [11] concerns Jurkat cells. Kind of series: Apoptosis analysis, Annexin V-FITC/PI staining, Jurkat cells. The settings on record: 72 h, concentrations up to 12 nM. In kind it is cell-based, human. How it is done:
as §3

Where [12] appears, read: 72 h, concentrations up to 30 μM.

Broadly, the CC50 is the concentration that lowers cell viability or growth by half. The EC50 is the concentration at which the effect is half-maximal. On to `CC1(C)O[C@@H]2[C@H](O1)[C@@H](CO)O[C@H]2n1ccc(=O)[nH]c1=O` [2a, 2′,3′-O-isopropylideneuridine], for which the CC50 at 72 h in series [1] (0–30 μM) and in series [2] was greater than 30 µM each time. In addition, the concentration for a half-maximal effect (EC50) in series [3] and in series [4] was greater than 30 µM in each case.
`Cc1cn([C@@H]2O[C@H](CO)[C@H]3OC(C)(C)O[C@H]32)c(=O)[nH]c1=O` [2b, 2′,3′-O-isopropylidene-5-methyluridine]: the CC50 at 72 h in [1] (0–30 μM) and in series [2] was greater than 30 µM in each case. Further, the EC50 in series [3] and in series [4] was greater than 30 µM each time.
Turning to `CC1(C)O[C@@H]2[C@H](O1)[C@@H](CO)O[C@H]2n1cc(F)c(=O)[nH]c1=O` [2c, 2′,3′-O-isopropylidene-5-fluorouridine], the CC50 at 72 h in [1] (0–30 μM) is 7.9 ± 0.6 µM; in series [2], 8.4 ± 2.2 µM. The “effect on cell survival” value in series [5] (setting [12]) and in series [6] was “significant suppressive effect on the survival” each time.
On to `CC1(C)O[C@@H]2[C@H](O1)[C@@H](CO)O[C@H]2n1cc(Cl)c(=O)[nH]c1=O` [2d, 2′,3′-O-isopropylidene-5-chlorouridine], for which the CC50 at 72 h in series [1] (0–30 μM) and in [2] was greater than 30 µM in each case. For the same compound, the EC50 in series [3] and in [4] was greater than 30 µM each time.
For `CC1(C)O[C@@H]2[C@H](O1)[C@@H](CO)O[C@H]2n1cc(Br)c(=O)[nH]c1=O` [2e, 2′,3′-O-isopropylidene-5-bromouridine], the CC50 at 72 h in series [1] (0–30 μM) and in series [2] was greater than 30 µM throughout. For the same compound, the EC50 in series [3] and in series [4] was greater than 30 µM each time.
For the compound `CC1(C)O[C@@H]2[C@H](O1)[C@@H](CO)O[C@H]2n1cc(I)c(=O)[nH]c1=O` [2f, 2′,3′-O-isopropylidene-5-ioduridine], the CC50 at 72 h in [1] (0–30 μM) and in [2] was greater than 30 µM in each case. The “effect on transduction efficiency of HIV-1 lentiviral particles (VP-GFP)” value in series [3] is “caused the suppression of the transduction efficiency”. In addition, the figures for the EC50 in series [3] and in [4] were 10.5 ± 1.2 µM and 13.1 ± 1.3 µM, respectively. The “drug interaction with Palbociclib (ZIP synergy)” value in series [7] (Jurkat) is “acts synergistically”. Besides, the “suppression of VP-GFP transduction efficiency” value in series [8] (2f 12 μM supplemented with AZT 12 μM, compared with 2f alone 30 μM (90%)) is recorded as “same activity”; in series [8] (compound alone, 12 μM), 70%; in [8] (compound alone, 30 μM), 90%. Further, the “drug interaction (ZIP synergy, SynergyFinder)” value in [8] (AZT and 2f in combination, up to 30 μM each) is given as “do not act synergistically”; in [9] it was “do not act synergistically”.
On to `Cc1cn([C@H]2C[C@H](N=[N+]=[N-])[C@@H](CO)O2)c(=O)[nH]c1=O` [AZT, 3′-Azido-2′,3′-dideoxythymidine, reference compound], for which the half-maximal cytotoxic concentration (CC50) at 72 h in [1] (Jurkat cells, 0–30 μM) was greater than 30 µM; in [2], greater than 30 µM. The “effect on cell survival” value in series [5] (setting [12]) and in series [6] was “did not affect cell survival” in each case. Further, the results for the EC50 in series [3] and in [4] were 0.4 ± 0.1 µM and 0.0122 ± 0.0114 µM, respectively. In addition, the “cells remaining GFP positive (plateau effect)” value in series [3] (Jurkat, from 2 μM up to 30 μM) is “about 30%”; in series [4] (CEM-ss, from 2 μM up to 30 μM), “about 20%”. The “drug interaction with Palbociclib (ZIP synergy)” value in [7] (Jurkat) is on record as “no synergistic action”.
For orientation: inhibition means the percentage by which the read-out fell short of the control. The compound `CC(=O)c1c(C)c2cnc(Nc3ccc(N4CCNCC4)cn3)nc2n(C2CCCC2)c1=O` [Palbociclib] had a CC50 at 72 h in series [1] (Jurkat cells, Palbociclib 0–6 μM) of 0.141 ± 0.0256 µM. In addition, in series [5] (concentrations up to 12 nM), the “effect on cell survival” value is recorded as “not to affect cell survival”. The inhibition at 0.0029 µM in series [7] (Palbociclib alone 2.9 nM (2f 0 nM, matrix of panel G)) came out at 10.8%; in [7] (Palbociclib alone 2.9 nM (AZT 0 nM, matrix of panel F)), 8.03%. Further, the inhibition at 0.0059 µM in series [7] (Palbociclib alone 5.9 nM (2f 0 nM, matrix of panel G)) was 5.66%; in series [7] (Palbociclib alone 5.9 nM (AZT 0 nM, matrix of panel F)) it was 8.75%. Also, the inhibition at 0.0117 µM came out at 3.9% in series [7] (Palbociclib alone 11.7 nM (2f 0 nM, matrix of panel G)) and 0.83% in [7] (Palbociclib alone 11.7 nM (AZT 0 nM, matrix of panel F)). For the same compound, the “suppressive effect on transduction efficiency of VP-GFP” value in series [7] (Jurkat, Palbociclib alone, ~3, ~6 or ~12 nM) is “not more than 10%”. Moreover, in series [10], the “effect on cell cycle progression” value is reported as “did not find any effect on cell cycle progression”. In series [11], the induction of apoptosis result is “does not cause the induction of apotosis”.
